“Also recorded” adds a separate entry of the source. Square brackets hold non-standard residues; d marks the D form. Ends that are not written are not given here. Peptide text beside a SMILES is read from it. * marks the point of attachment. Myristoyl = CCCCCCCCCCCCCC(=O)*; pS = N[C@@H](COP(=O)(O)O)C(=O)O
How the values were obtained:
GSK-3 = GSK-3 (Homo sapiens, UniProt P49841); conditions: Licht-Murava et al. 2011; cited from earlier work
GSK-3β F93A mutant [1] = target: T1, GSK-3β F93A mutant (Homo sapiens, UniProt P49841, F93A); assay: In vitro kinase assay: inhibition of the GSK-3β F93A mutant, pIRS-1 as substrate; assay type: biochemical; conditions: FIG. 6
T1 construct: made in house, partially purified on a DE-52 minicolumn
Experimental: (§1) GSK-3β F93A mutant (in which Phe93 was replaced by alanine) was prepared as described in WO 2012/101599.
(§2) In assays conducted with GSK-3 mutant, the GSK-3β proteins (WT or mutant) were incubated with the indicated substrate in a reaction mixture (50 mM Tris-HCl, pH 7.3, 10 mM magnesium acetate, and 0.01% β-mercaptoethanol) together with 100 μM ^32P[γ-ATP] (0.5 μCi/assay) for 15 minutes. Reactions were stopped by spotting on p81 paper (Whatman) washed with phosphoric acid, and counted for radioactivity as previously described [Ilouz et al. (2006) supra]. In assays from cells overexpressing GSK-3 proteins, GSK-3 proteins were partially purified by DE-52 minicolumn and subjected to in vitro kinase assays as described. The activity of the endogenous GSK-3 that was determined in cells transfected with the pCMV4 vector was subtracted from the activity values obtained for WT and mutants.
In vitro kinase assays conducted for evaluating the inhibition activity of L807 and pL807 of the F93A mutant were also conducted, using pIRS-1 as a substrate.

GSK-3β (WT) [2] = target: T2, GSK-3β (WT) (Homo sapiens, UniProt P49841); assay: In vitro kinase assay: phosphorylation of the peptide as a substrate by GSK-3β (WT), 32P-γ-ATP; assay type: biochemical; conditions: WT GSK-3β, FIG. 3 and FIG. 5
T2 construct: made in house
Experimental: (§3) GSK-3β (WT) was incubated with pIRS-1, RREGGMSRPAS(p)VDG (SEQ ID NO:55), as an exemplary substrate, in a reaction mixture (50 mM Tris-HCl, pH 7.3, 10 mM magnesium acetate, and 0.01% β-mercaptoethanol) together with 100 μM 32P[γ-ATP] (0.5 μCi/assay) for 15 minutes. Reactions were stopped by spotting on p81 paper (Whatman), washed with phosphoric acid, and counted for radioactivity as previously described [Ilouz et al. (2006) supra].
as §2
Thus, in vitro kinase assays as described hereinabove were performed in the presence of pIRS-1 substrate or L807 and phosphorylation was determined. […]

GSK-3β F93A mutant [3] = target: T1, GSK-3β F93A mutant; assay: In vitro kinase assay: phosphorylation of the peptide as a substrate by the GSK-3β F93A mutant; assay type: biochemical; conditions: FIG. 5
Experimental: as §1, §2
Thus, L807 and the substrate pHSF-1 were both tested in in vitro kinase assays as described hereinabove, for the ability of GSK-3β (WT) and its F93A mutant to phosphorylate these peptides.

5XFAD mice = assay: Contextual fear conditioning test in 5XFAD mice; assay type: in vivo, mouse; conditions: intranasal, 60 μg/dose every other day for 120 days, FIG. 8A
Experimental: 5XFAD mice were purchased from Jackson laboratory and maintained at an animal house. The 5XFAD mice were randomly assigned to two groups (6 animals each). Treatment started at the age of 2 months, by administering, intranassally, L807-mts (60 μg) (5 μl solution in each nostril) every other day for 120 days.
A contextual fear conditioning test (FCT) was thereafter conducted as described in Saura et al. (2005) J. Neurosci. 25(29), 6755-6764. Briefly, mice were subjected to an unconditioned electric stimulus (US footshock; 1 s/1 mA) in a training pre-session. Twenty-four hours later, FCT was measured by scoring freezing behavior (the absence of all but respiratory movement) for 180 seconds using a FreezeFrame automated scoring system (Coulbourn Instruments). All experiments were in compliance with protocols approved by the TAU animal care committee.
Mice (two-month old) were treated intranasally with L807-mts (60 μg/dose) for 120 days. At the end of the experiment mice were subjected to the contextual fear conditioning test (FCT), a behavioral test widely used to evaluate associative learning and memory (see, Saura et al. (2005) supra).

Aβ loads = assay: Congo red staining of Aβ loads in brain sections of 5XFAD mice; assay type: in vivo, mouse; conditions: intranasal 60 μg/dose for 120 days, FIG. 8B
Experimental: 5XFAD mice were purchased from Jackson laboratory and maintained at an animal house. The 5XFAD mice were randomly assigned to two groups (6 animals each). Treatment started at the age of 2 months, by administering, intranassally, L807-mts (60 μg) (5 μl solution in each nostril) every other day for 120 days. Saline-perfused brains of the tested mice were rapidly excised and frozen in N2. Brains were divided into the two hemispheres: the left hemisphere was taken for immunohistology and the right hemisphere for immunoblot analysis. Coronal brains sections (14 μm) were cut by cryostat at -20° C. Slices at Bregma -1.58 mm were fixed (using 4% PFA) and stained with Congo red dye (Sigma-Aldrich) or with an antigen-retrieval method with anti-Aβ 6E10 antibody (SIG-39300) and visualized by fluorescence microscopy. Quantification of Aβ depositions was done for the whole hippocampus area in a blinded fashion using Imaging Research software from the NIH in an unbiased stereological approach. Mice were scarified and coronal brain sections were stained with congo red dye and Aβ loads were visualized by fluorescence microscopy.

GSK-3β (WT) [4] = target: T2, GSK-3β (WT); assay: In vitro kinase assay: inhibition of GSK-3β (WT), pIRS-1 as substrate; assay type: biochemical; conditions: FIG. 4
Experimental: Bacterially expressed Purified GSK-3β Wild-Type (WT) was prepared as previously described (Eldar-Finkelman 1996 PNAS).
as §3
The ability of the novel peptides described in Example 1 to inhibit GSK-3β was determined by in vitro kinase assays as described hereinabove. The results are presented in FIGS. 2A-B. Substrate phosphorylation obtained in reaction with no inhibitor was defined as 100% (Con), and the results presented are means of two independent experiments each performed in duplicate±SEM.

GSK-3β F93A mutant [5] = target: T1, GSK-3β F93A mutant; conditions: Licht-Murava et al. 2011; cited from earlier work

T1 sequence (P49841 whole entry F93A): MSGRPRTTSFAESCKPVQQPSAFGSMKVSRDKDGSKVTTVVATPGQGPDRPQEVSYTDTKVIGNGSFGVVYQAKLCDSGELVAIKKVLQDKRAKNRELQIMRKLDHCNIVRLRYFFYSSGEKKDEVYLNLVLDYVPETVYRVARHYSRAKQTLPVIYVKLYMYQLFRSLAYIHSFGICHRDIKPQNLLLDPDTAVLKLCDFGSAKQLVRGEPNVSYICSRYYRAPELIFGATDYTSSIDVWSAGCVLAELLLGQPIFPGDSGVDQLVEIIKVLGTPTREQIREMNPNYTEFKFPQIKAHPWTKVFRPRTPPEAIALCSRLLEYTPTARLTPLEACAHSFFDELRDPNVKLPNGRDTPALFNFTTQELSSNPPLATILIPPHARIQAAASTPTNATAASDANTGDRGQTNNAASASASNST
T2 sequence (P49841 whole entry): as the sequence (P49841 whole entry F93A) above, with A93F counted along it
Sequence of GSK-3 (P49841 whole entry): as the sequence (P49841 whole entry F93A) above, with A93F counted along it

## C[C@H](NC(=O)[C@H](CCC(=O)O)NC(=O)[C@@H](N)CCCCN)C(=O)N1CCC[C@H]1C(=O)N1CCC[C@H]1C(=O)N[C@@H](C)C(=O)N1CCC[C@H]1C(=O)N1CCC[C@H]1C(=O)N[C@@H](CCC(N)=O)C(=O)N[C@@H](COP(=O)(O)O)C(=O)N1CCC[C@H]1C(=O)O [L803, KEAPPAPPQS(p)P] (H-KEAPPAPPQ[pS]P-OH; N-terminus and C-terminus assumed)
GSK-3
  Interaction with F93 of GSK-3, binding mode as previously reported: contacts GSK-3 residue F93

## C[C@H](NC(=O)[C@H](CCC(=O)O)NC(=O)[C@@H](N)CCCCN)C(=O)N1CCC[C@H]1C(=O)N1CCC[C@H]1C(=O)N[C@@H](CO)C(=O)N1CCC[C@H]1C(=O)N1CCC[C@H]1C(=O)N[C@@H](CCC(N)=O)C(=O)N[C@@H](COP(=O)(O)O)C(=O)N1CCC[C@H]1C(=O)O [L807, KEAPPSPPQS(p)P] (H-KEAPPSPPQ[pS]P-OH; N-terminus and C-terminus assumed)
GSK-3β F93A mutant [1]
  Inhibition of the F93A mutant: no inhibition
GSK-3β (WT) [2]
  Peptide phosphorylation by GSK-3β (substrate or not): is a substrate of GSK-3; also recorded: phosphorylated
GSK-3β F93A mutant [3]
  Peptide phosphorylation by F93A mutant: phosphorylated

## CCCCCCCCCCCCCC(=O)NCC(=O)N[C@@H](CCCCN)C(=O)N[C@@H](CCC(=O)O)C(=O)N[C@@H](C)C(=O)N1CCC[C@H]1C(=O)N1CCC[C@H]1C(=O)N[C@@H](CO)C(=O)N1CCC[C@H]1C(=O)N1CCC[C@H]1C(=O)N[C@@H](CCC(N)=O)C(=O)N[C@@H](COP(=O)(O)O)C(=O)N1CCC[C@H]1C(=O)O [L807-mts, myristic acid-GKEAPPSPPQS(p)P] (Myristoyl-GKEAPPSPPQ[pS]P-OH; C-terminus assumed)
5XFAD mice
  Freezing behavior, performance relative to wild-type (WT) mice: up to 81%±14%
Aβ loads
  Amount and mean sizes of Aβ loads: largely reduced

## KEAPPS(p)PPQS(p)P (KEAPP[pS]PPQ[pS]P) [pL807, double phosphorylated L807]
GSK-3β (WT) [4]
  Inhibition of GSK-3: does not inhibit GSK-3
GSK-3β (WT) [2]
  Peptide phosphorylation by GSK-3β (substrate or not): is not a substrate of GSK-3

## RREGGMSRPAS(p)VDG (RREGGMSRPA[pS]VDG) [pIRS-1, GSK-3 substrate peptide from the insulin receptor substrate-1]
GSK-3β F93A mutant [5]
  Peptide phosphorylation by F93A mutant (literature): not phosphorylated
